Laboratory results as given in patent US8278072B1, “Method for synthesis of sialylated products using reversible sialylation” (Health Research, Inc., priority 2007, dated 2012).

What was measured:
ST3Gal-II [1] = molecular target: T1, ST3Gal-II (Rattus norvegicus, UniProt Q11205); assay: Reverse sialylation: transfer of [9-3H]NeuAc from sialylated donor to nucleotide phosphates (WGA-agarose); format: biochemical; details: nucleotide phosphate 1 mM as acceptor, donor [1]
T1 construct: purchased Calbiochem
T1 sequence (Q11205 1-350): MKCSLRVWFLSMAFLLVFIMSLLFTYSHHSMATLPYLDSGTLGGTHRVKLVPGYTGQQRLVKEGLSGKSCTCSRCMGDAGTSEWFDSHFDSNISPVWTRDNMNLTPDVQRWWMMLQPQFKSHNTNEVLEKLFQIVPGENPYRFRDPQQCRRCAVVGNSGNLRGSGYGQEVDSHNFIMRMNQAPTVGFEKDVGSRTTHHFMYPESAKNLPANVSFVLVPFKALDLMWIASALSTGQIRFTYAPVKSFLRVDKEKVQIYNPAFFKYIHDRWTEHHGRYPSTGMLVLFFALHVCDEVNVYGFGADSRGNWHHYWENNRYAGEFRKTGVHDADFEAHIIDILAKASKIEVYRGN
Protocol: FIG. 1. Nucleotide phosphates as acceptors of radioactivity from [9-^3H]NeuAcα2,3Galβ,13 (GlcNAcβ1,6)GalNAcα-O—Al (Al=Allyl) [[9-^3H] [1]] in the presence of ST3Gal-II (scheme-I). Reaction mixtures (RM) with the following composition were incubated at 37° C. for 21 hours in 100 mM NaCa Codylate buffer, pH6.0: i) RM containing 150 μM (0.4 μCi) [[9-^3H] [1]] (donor) along with 0.8 mU ST3Gal-II but no 5″-CMP; and, ii) RM containing [[9-^3H] [1]] and 1.0 mM 5′-CMP, along with ST3Gal-II. Products formed were fractionated on a WGA-agarose column. […] The feasibility of the reverse reaction is well established in literature. Schematic symbols: ♦:sialic acid, ●:Gal, □:GalNAc, ▪:GlcNAc.
All enzymatic sialylation reactions were typically carried out in 100 mM NaCa Codylate buffer pH6.0 in the presence of enzyme, synthetic acceptor (at 7.5 mM or as indicated in each experiment) and 0.2 μCi CMP-[9-^3H]NeuAc (NEN-Dupont, 29 mCi/μmol). The concentration of total CMP-NeuAc was adjusted in individual reactions by supplementing with additional cold CMP-NeuAc. Reaction volume was 20 μl. Products formed were separated using four different chromatography procedures (below). In all cases, the radioactive content of isolated products was determined by using 3a70 scintillation cocktail (Research Products International, Mount Prospect, Ill.), and a Beckman LS6500 scintillation counter.
a) Biogel P2 chromatography: A Biogel P2 column (Fine Mesh; 1.0×116.0 cm) was used with 0.1 M pyridine acetate (pH5.4) as the eluent at room temperature. […] Fractions of 1.0 ml were collected. The bound material was then eluted with 0.5M GlcNAc or 0.2M Gal in the same buffer. […] Calculation of equilibrium constant, Keq: Equilibrium constant was calculated for selected reversible bimolecular reactions that are denoted by:
Cloned and purified rat sialyltransferase α2,3(O)ST (ST3Gal-II) is used in many experiments presented in this manuscript. […] In order to determine if the sialylation reaction is reversible (FIG. 1), [9-^3H]NeuAcα2,3Galβ,13(GlcNAcβ1,6)GalNAcα-O—Al (Al=Allyl) [9-^3H[1]] was prepared using ST3Gal-II in the presence of CMP-[9-^3H]NeuAc and the trisaccharide acceptor Galβ1,3(GlcNAcβ1,6)GalNAcα-O—Al, and the radiolabeled product was isolated using Biogel P2 chromatography. […] Two different reaction mixtures were then prepared with: i) [9-^3H[1]] and ST3Gal-II but without 5″-CMP; and ii) [9-^3H[1]] and 5″-CMP along with ST3Gal-II.

ST3Gal-II [2] = molecular target: T1, ST3Gal-II; assay: Serial transfer of sialic acid from donor via 5′-CMP to acceptors (scheme-II); format: biochemical; details: acceptor 2.5 mM, 1 mM 5′-CMP, 4 hours; for Incorporation of [9-3H]NeuAc from donor [3], percent of the CPM incorporated into [5]: 150 μM donor [3]; for Incorporation of [9-3H]NeuAc from donor [4], percent of the CPM incorporated into [5]: 150 μM donor [4]
Protocol: FIG. 3. Serial transfer of sialic acid using scheme-II was followed at increasing concentrations of acceptor D-Fucβ1,3GalNAcα-O-Bn. The donor used was either: i) 0.15 mM [9-^3H]CMP-NeuAc; or, ii) 0.15 mM [9-^3H]NeuAcα2,3Galβ1,3(4-FGlcNAcβ1,6)GalNAcα-O-Bn [9-^3H [2]] in the presence of 2.0 mM 5′-CMP, or iii) [9-^3H]NeuAcα2,3Galβ1,3(6-O-SulfoGlcNAcβ1,6)GalNAcα-O—Al [[9-^3H] [4]] in the presence of 2.0 mM 5′-CMP. In runs where [9-^3H [2]] was donor since both and [2] bind C18 cartridges, control runs were performed in the absence of D-Fucβ1,3GalNAcα-O-Bn to estimate the amount of [9-^3H]CMP-NeuAc formed under the experimental conditions. 80-85% of the radioactivity was transferred to CMP-NeuAc in these runs. The amount of CMP-NeuAc remaining in runs with was then subtracted from CMP-NeuAc radioactivity in the control run to determine the amount of sialylated. To complement this run, studies were also performed with [[9-^3H] […] In these runs, the amount of sialylated was determined by measuring radioactivity retained in the C18-cartridge. a. Equilibrium constant was 5.55 when CMP-[9-^3H]NeuAc was donor. b. ˜10-fold lower acceptor concentration was required for similar extents of reaction when CMP-[9-^3H]NeuAc was donor, compared to core-2 based donors and [4].
We tested the possibility that CMP-NeuAc formed above may be available for transfer to other acceptors using ST3Gal-II (scheme-II, FIG. 3). For this, three radiolabeled donors were prepared using methods described above: two were based on the mucin Core-2 structure ([[9-^3H] [1]] and [9-^3H]NeuAcα2,3Galβ1,3(6-O-SulfoGlcNAcβ1,6)GalNAcα-O—Al [[9-^3H] [4]]) while the third was based on the Globo glycolipid ([9-^3H] [3]). The transfer of [9-^3H]NeuAc from these sialylated donors to various T-hapten (Galβ1,3GalNAcα) and mucin core2-based glycoside acceptors in the presence of 5′-CMP and ST3Gal-II was assessed (Table III). All three […] of ST3Gal-II ([1], [3] and [4]) allowed formation of CMP-[9-^3H]NeuAc, and a diverse array of products.
The transfer of [9-^3H]NeuAc from [[9-^3H][1]] to D-Fucβ1,3GalNAcα-O-Bn in the presence of 5′-CMP and ST3Gal-II increased linearly in the first two hours and it reached saturation at 4 hours (FIG. 12), and thus the data in Table III (4 hours time point) represent equilibrium conditions. […] Further, diverse sialylated products can be formed using the same synthetic sialylated donor.
In order to compare the efficiency of individual reactions of scheme II, independent runs were performed where either 0.15 mM [9-^3H]CMP-NeuAc, 0.15 mM [9-^3H] [2] or 0.15 mM [9-^3H] [4] was the donor, and [5] was the acceptor (FIG. 3). 2 mM 5′-CMP was added in runs with core-2 donors and [4], and thus reverse sialylation of these molecules was feasible. Keq for transfer of sialic acid from CMP-NeuAc to [5] was 5.55 (FIG. 3a). […] (˜6 mM) or [9-^3H[4]] (˜6 mM). Thus, while the two-step mechanism results in lower conversion than CMP-NeuAc alone, the transfer of NeuAc still takes place at an appreciable rate.

SMILES	Incorporation of [9-3H]NeuAc expressed as percent of the CPM incorporated into 5′-CMP (ST3Gal-II [1]) [%]	Incorporation of [9-3H]NeuAc from donor [3], percent of the CPM incorporated into [5] (ST3Gal-II [2]) [%]	Incorporation of [9-3H]NeuAc from donor [4], percent of the CPM incorporated into [5] (ST3Gal-II [2]) [%]	Incorporation of [9-3H]NeuAc from donor [1], percent of the CPM incorporated into [5] (ST3Gal-II [2]; 150 μM donor [1]) [%]
Nc1ccn([C@@H]2O[C@H](CO)[C@@H](OP(=O)(O)O)[C@H]2O)c(=O)n1 [3′-CMP]	2.4			
Nc1ncnc2c1ncn2[C@@H]1O[C@H](COP(=O)(O)O)[C@@H](O)[C@H]1O [5′-AMP]	3.0			
Nc1ccn([C@@H]2O[C@H](COP(=O)(O)OP(=O)(O)OP(=O)(O)O)[C@@H](O)[C@H]2O)c(=O)n1 [5′-CTP, cytidine triphosphate]	1.6			
Nc1nc2c(ncn2[C@@H]2O[C@H](COP(=O)(O)O)[C@@H](O)[C@H]2O)c(=O)[nH]1 [5′-GMP]	2.3			
Cc1cn([C@H]2C[C@H](O)[C@@H](COP(=O)(O)O)O2)c(=O)[nH]c1=O [5′-TMP]	1.1			
CC(=O)N[C@H]1[C@H](OC[C@H]2O[C@H](OCc3ccccc3)[C@H](NC(C)=O)[C@@H](O[C@@H]3O[C@H](C)[C@H](O)[C@H](O)[C@H]3O)[C@H]2O)O[C@H](CO)[C@@H](O)[C@@H]1O [[6], D-Fucβ1,3(GlcNAcβ1,6)GalNAcα-O-Bn]		106.5	96.9	
CC(=O)N[C@H]1[C@@H](OCc2ccccc2)O[C@H](CO)[C@H](O)[C@@H]1O[C@@H]1O[C@H](CO)[C@H](F)[C@H](O)[C@H]1O [[7], 4-FGalβ1,3GalNAcα-O-Bn]		4.1	33.3	60.8
